According to patent publication US4168206A, “Impregnated disk method for testing antifungal susceptibility” (Philadelphia College of Osteopathic Medicine, priority 1977, dated 1979):
Converted amounts (≈) assume the structure as drawn. Read-outs that look alike come from different tables or passages of the source.

How the values were obtained:
Type in all cases: cell-based
[1] = tested on: Candida albicans; test: Minimum fungicidal concentration by broth dilution method
From the text: (§1) The preparation of the nutrient media, the antifungal agents and the fungi to be tested in the present invention are similar to those reported in S. Shadomy and A. Espinel-Ingroff, "Susceptibility Testing Of Antifungal Agents", Ch. 63, pp. 569-574 in E. H. Lennett, E. H. Spaulding, and J. P. Truant, Eds., Manual Of Clinical Microbiology, 2nd Ed., American Society for Microbiology, Washington, D.C. (1974). This publication describes the susceptibility testing of antifungal agents, namely, amphotericin B, nystatin and 5-fluoro-cytosine (5-FC), by the "broth dilution method" and the "semisolid agar dilution method". At pages 570-571, it is stated:
(§2) The minimal fungicidal concentrations of amphotericin B for the first 6 isolates of Candida albicans listed in Table 1 were determined by incubating the disks and organisms for 48 hours. At concentrations below the minimum fungicidal concentration, overgrowth occurred by 48 hours.

[2] = tested on: Trichosporon sp.; test: MIC by broth dilution method, Trichosporon sp.; settings: Trichosporon, read-out: Minimum Inhibitory Concentration, Broth
From the text: as §1
(§3) In 10 duplicate runs with each strain tested, the variation in minimum inhibitory concentration averaged ±0.05 μg/ml.
(§4) *Broth dilution method conducted in accordance with S. Shadomy and E.
(§5) Espinel-Ingroff, "Susceptibility Testing of Antifungal Agents", Ch. 63,
(§6) pp. 569-574 in E. H. Spaulding and J. P. Truant, Eds., Manual Of Clinical
(§7) Microbiology, 2nd Ed., American Society for Microbiology, Washington, […]

[3] = tested on: Candida albicans; test: Minimum fungicidal concentration by disk method; settings: 48 h
Procedure: Minimum fungicidal concentration is defined as the lowest concentration of antifungal agent from which subcultures were negative or where no overgrowth occurs. In tests of Candida albicans, the minimum inhibitory concentration can usually be determined at about 24 hours. Minimum fungicidal concentration may be determined by incubation for an additional 24 hours. At concentrations below the minimum fungicidal concentration, overgrowth occurs by 48 hours.
as §2

[4] = tested on: Geotrichum candidum; test: MIC by broth dilution method, Geotrichum candidum; settings: read-out: Minimum Inhibitory Concentration, Broth
From the text: as §1, §3, §4, §5, §6, §7

[5] = tested on: C. tropicalis; test: MIC by broth dilution method, Candida tropicalis; settings: Candida tropicalis, read-out: Minimum Inhibitory Concentration, Broth
From the text: as §1, §3, §4, §5, §6, §7

[6] = tested on: Candida albicans; test: Susceptibility to combination of antifungal agents on disks (Example 2); settings: Candida albicans isolate
From the text: (§8) The method of the present invention also may be used to test combinations of antifungal agents. In this method, more than one antifungal agent of known concentration is impregnated in each test disk.
(§9) Each disk is impregnated with a particular known concentration of at least one particular antifungal agent, except for the control disks. When the susceptibility of a fungus to combinations of antifungal agents is being tested, more than one antifungal agent is impregnated in each test disk.
(§10) The susceptibility of two other isolates to combinations of antifungal agents were tested by combining more than one antifungal agent on each test disk. A series of test disks were prepared containing various combinations of antifungal agents in various concentrations and were used in the method of the present invention. The results of this procedure are summarized in the following specific, non-limiting examples:
This is a significant reduction in amphotericin B.

[7] = tested on: Candida tropicalis; test: Susceptibility to combination of antifungal agents on disks (Example 3)
From the text: as §8, §9, §10
An isolate of Candida tropicalis was initially tested for amphotericin B susceptibility of 0.5 μg/ml. When a combination of amphotericin B and tetracycline were combined on the disks used in the testing procedure according to the present invention, effective inhibition of the isolate occurred using 0.05 μg/ml of amphotericin B and 0.2 μg/ml of tetracycline.

[8] = tested on: Saccharomyces cerevisiae; test: MIC by impregnated disk method, Saccharomyces cerevisiae; settings: Saccharomyces cerevisiae
Procedure: Stock solutions of the antifungal agents to be tested are preferably prepared by diluting the antifungal agents in the proper nutrient medium. It is presently preferred to prepare dilutions in 10 ml of the proper medium to give the following final concentrations when applied to the disks (all quantities in micrograms per milliliter): 0.05, 0.08, 0.09, 0.1; 0.1 increment increases to 0.9, 1.0; 0.5 increment increases to 10.0; and 12.0, 14.0, 20.0, 25.0 and 50.0. Disks have been prepared by placing 0.05 ml of the above dilutions of antifungal agent containing medium on 6.5 mm diameter disks in 0.01 or 0.02 ml increments. The impregnated disks are then allowed to dry at a temperature preferably below about 10° C. […] The disks may also be dried by a lyophilization or freeze drying process.
To perform the tests in accordance with the present inventions, disks impregnated with various concentrations of antifungal agent and nutrient medium and a control disk impregnated only with the corresponding nutrient medium are placed on the fungus to be tested which has been applied to the non-nutrient medium. The disks are the inoculated non-nutrient medium are then incubated at a suitable temperature for a sufficient time to promote growth of the fungus. Any temperature is suitable if it will promote growth of the fungus without adversely affecting the fungus or the activity of the antifungal agent or agents tested. The time of incubation can be determined by observing the extent of growth around the control disk. […] The zones of growth or inhibition around the disks were read at 6, 12, 24, 36 and 48 hours after the disks were placed on the tested fungus.
The minimum inhibitory concentration is defined as the lowest concentration of antifungal agent which inhibits visible growth. The disks containing concentrations of antifungal agents below the minimum inhibitory concentration show circumscribed growth of the fungus around the disk. Disks containing concentrations of antifungal agent at or above the minimum inhibitory concentration show no circumscribed growth.
Clinical isolates of various fungi listed in Table 1 were obtained from different patients diagnosed as having fungal infections. The fungal inocula were prepared by using a 24-48 hour cultures grown in yeast nitrogen base containing 1% glucose and 0.15% asparagine. After centrifuging, the supernatant was removed, the sedimented cells were washed twice with sterile distilled water and a cell suspension was adjusted to 80% transmission at 520 nm using a Beckman DB-GT grating spectrophotometer.
Sterile liquified 2% purified agar was placed in petri dishes and allowed to harden. The surface of the agar was inoculated with a sterile cotton swab saturated with a suspension of an organism. The uniformly swabbed plates were then allowed to dry.
Disks were prepared using the dilutions described above for amphotericin B, nystatin and 5-fluorocytosine. 0.05 ml of the dilutions of each antifungal agent diluted with the appropriate nutrient medium were pipetted on 6.5 mm diameter disks. The disks were dried at 4° C. after each application. Control disks were also prepared.
Several test disks and a control disk were placed in each petri dish containing the inoculated agar. The disks and petri dishes were then incubated at 29° C. and the minimum inhibitory concentration of the various concentrations of the antifungal agents were read at 6, 12, 24, 36 and 48 hours.
as §3

C[C@@H]1[C@H](O)[C@@H](C)/C=C/C=C/C=C/C=C/C=C/C=C/C=C/[C@H](O[C@@H]2O[C@H](C)[C@@H](O)[C@H](N)[C@@H]2O)C[C@@H]2O[C@](O)(C[C@@H](O)C[C@@H](O)[C@H](O)CC[C@@H](O)C[C@@H](O)CC(=O)O[C@H]1C)C[C@H](O)[C@H]2C(=O)O [Amphotericin B, amphotericin B]
MFC ([1]; isolate 1): 1.5 µg/mL (≈ 1.62 µM)
MFC ([1]; isolate 2): 1.6 µg/mL (≈ 1.73 µM)
MFC ([1]; isolate 3): 0.8 µg/mL (≈ 0.866 µM)
MFC ([1]; isolate 4): 1.1 µg/mL (≈ 1.19 µM)
MFC ([1]; isolate 5): 1.6 µg/mL (≈ 1.73 µM)
MFC ([1]; isolate 6): 6.5 µg/mL (≈ 7.03 µM)
MIC [2]: 1.1 µg/mL (≈ 1.19 µM)
MFC ([3]; isolate 3, read-out: Minimum Fungicidal Concentration, Disk): 0.9 µg/mL (≈ 0.974 µM)
MFC ([3]; isolate 4, read-out: Minimum Fungicidal Concentration, Disk): 0.9 µg/mL (≈ 0.974 µM)
MFC ([3]; isolate 6, read-out: Minimum Fungicidal Concentration, Disk): 5 µg/mL (≈ 5.41 µM)
MFC ([3]; read-out: Minimum Fungicidal Concentration, Disk, isolate 1): 1.4 µg/mL (≈ 1.52 µM)
MFC ([3]; read-out: Minimum Fungicidal Concentration, Disk, isolate 2): 1.6 µg/mL (≈ 1.73 µM)
MFC ([3]; read-out: Minimum Fungicidal Concentration, Disk, isolate 5): 1.8 µg/mL (≈ 1.95 µM)
MIC [4]: 0.9 µg/mL (≈ 0.974 µM)
MIC [5]: 0.8 µg/mL (≈ 0.866 µM)
amphotericin B susceptibility ([6]; alone, previously tested): 0.8 µg/mL
amphotericin B susceptibility ([6]; in combination with tetracycline): 0.2 µg/mL
MIC ([7]; Candida tropicalis isolate, alone, initially tested, read-out: amphotericin B susceptibility): 0.5 µg/mL
effective inhibition of the isolate, concentration of amphotericin B ([7]; in combination with tetracycline 0.2 μg/ml): 0.05 µg/mL
MIC ([8]; read-out: Minimum Inhibitory Concentration, Disk, S. cerevisiae isolate 2): 0.6 µg/mL (≈ 0.649 µM)
MIC ([8]; read-out: Minimum Inhibitory Concentration, Disk, Saccharomyces cerevisiae isolate 1): 0.4 µg/mL (≈ 0.433 µM)
